In patent US20240124439A1, “Pyrido[2,3-D]Imidazole Derivatives and Their Use As Inhibitors of ITK for the Treatment of Skin Disease” (Pfizer Inc., priority 2020, published 2024) one finds IC50 and inhibition data, which are given here for four compounds.

The subject of assay [1] is activated CD4+ human T-cells (IL-2). As to the kind of experiment: IL-2 inhibition in supernatants from activated CD4+ human T-cells (cisbio HTRF). The following applies: T-cell; CD3/CD28-activated CD4+ human T cells, ImmunoCult stimulation 20 to 24 hrs; geometric mean of count n. Type of assay: cell-based. The gist of the method:
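Primary human CD4+ T cells activated with CD3/CD28 for 3 days and expanded to 7-9 days total, plated at 30,000 cells/well. Cells preincubated 15 min with compound, then stimulated with ImmunoCult (1:50 final) for 20-24 h at 37° C. Supernatant IL-2 measured by HTRF (665/615 nm); IC50 from four-parameter logistic fit.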
(In general: TR-FRET usually uses a lanthanide donor and a delayed reading to cut background.)

Assay [2] deals with IL-2-Inducible T-Cell Kinase (ITK) (Homo sapiens (Human), UniProt Q08881). As to the kind of experiment: ITK enzyme assay (IL-2-inducible T-cell kinase activity). The following applies: geometric mean of count n. The class given is biochemical. An outline of the steps: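 Full-length N-Flag/C-His human ITK, pre-incubated 30 min at RT with compound. Reaction in HEPES pH 7.5 buffer with MgCl2, glutathione, gelatin and Brij-35, started with BTK peptide substrate, 60 min at RT. EDTA stop, PT66/APC TR-FRET detection overnight; IC50 fitted by four-parameter logistic.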

Assay [3] addresses Tropomyosin Receptor Kinase A (TRKA), NTRK1 enzyme (Homo sapiens (Human), UniProt P04629). As to the kind of experiment: TRKA (NTRK1) ThermoFisher Z'-LYTE enzyme assay. The class given is biochemical. As to conditions: test compound 1 uM, ATP 1 mM; arithmetic mean of count n. The method, then:
TRKA, also known as neurotrophic tyrosine kinase receptor type 1 (NTKR1) activity was determined by measuring the effect of a test compound on the activity against the NTRK1 enzyme using the ThermoFisher Z′-LYTE Assay fluorescence-based coupled enzyme format (www.thermofisher.com/selectscreen). Test compounds were screened at a fixed concentration of 1 uM and the % inhibition was determined compared to controls at a fixed ATP concentration of 1 mM. The resulting effect value for the tested compound was compared to the assay controls to determine the % inhibition (%).

The IC50 is the concentration that gives 50% inhibition. A low value points to greater potency. The term inhibition denotes the change of the read-out against control, counted positive when it falls.

IL-2-Inducible T-Cell Kinase (ITK), sequence (Q08881 whole entry): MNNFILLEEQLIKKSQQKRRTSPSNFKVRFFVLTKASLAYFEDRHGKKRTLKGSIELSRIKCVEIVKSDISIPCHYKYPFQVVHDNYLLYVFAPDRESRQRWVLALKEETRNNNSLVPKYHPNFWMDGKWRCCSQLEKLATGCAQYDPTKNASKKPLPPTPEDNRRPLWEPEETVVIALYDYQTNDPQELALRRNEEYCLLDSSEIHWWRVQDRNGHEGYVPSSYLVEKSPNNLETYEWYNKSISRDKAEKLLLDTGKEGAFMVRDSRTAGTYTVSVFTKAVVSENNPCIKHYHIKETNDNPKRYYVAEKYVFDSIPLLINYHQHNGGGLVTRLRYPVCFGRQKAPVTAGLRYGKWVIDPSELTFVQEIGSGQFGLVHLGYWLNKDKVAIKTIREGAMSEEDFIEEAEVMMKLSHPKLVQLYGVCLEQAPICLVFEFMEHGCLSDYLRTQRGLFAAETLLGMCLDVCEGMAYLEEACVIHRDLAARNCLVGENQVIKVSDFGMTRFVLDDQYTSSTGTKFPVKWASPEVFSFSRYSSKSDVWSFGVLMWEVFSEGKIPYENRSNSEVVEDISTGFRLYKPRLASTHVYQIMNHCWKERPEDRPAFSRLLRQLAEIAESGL
Tropomyosin Receptor Kinase A (TRKA), NTRK1 enzyme, sequence (P04629 33-796): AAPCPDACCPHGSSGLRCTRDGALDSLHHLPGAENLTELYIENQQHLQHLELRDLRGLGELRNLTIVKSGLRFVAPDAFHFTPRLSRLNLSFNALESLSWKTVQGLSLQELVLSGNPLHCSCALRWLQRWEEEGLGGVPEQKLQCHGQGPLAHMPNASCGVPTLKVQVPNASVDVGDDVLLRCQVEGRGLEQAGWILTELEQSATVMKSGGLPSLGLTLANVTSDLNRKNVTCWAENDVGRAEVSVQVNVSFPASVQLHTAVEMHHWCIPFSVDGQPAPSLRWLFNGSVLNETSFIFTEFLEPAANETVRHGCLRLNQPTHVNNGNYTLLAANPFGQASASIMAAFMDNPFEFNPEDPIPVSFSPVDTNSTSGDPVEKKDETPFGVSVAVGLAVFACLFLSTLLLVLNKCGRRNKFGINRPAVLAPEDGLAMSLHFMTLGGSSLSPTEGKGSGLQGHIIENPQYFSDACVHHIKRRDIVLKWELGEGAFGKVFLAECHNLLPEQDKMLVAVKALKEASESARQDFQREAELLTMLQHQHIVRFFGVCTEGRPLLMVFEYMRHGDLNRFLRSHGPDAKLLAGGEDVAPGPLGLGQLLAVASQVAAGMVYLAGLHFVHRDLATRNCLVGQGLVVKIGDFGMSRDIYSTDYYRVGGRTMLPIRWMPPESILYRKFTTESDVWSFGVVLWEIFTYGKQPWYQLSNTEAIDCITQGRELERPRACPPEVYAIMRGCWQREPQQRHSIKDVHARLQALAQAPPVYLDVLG

As to `CN(c1cnc2nc(-c3n[nH]c4c3C[C@@H]3C[C@]3(C)C4)[nH]c2c1)C(=O)[C@H]1C[C@H](C)C1` [Example 84, (1r,3S)-N,3-Dimethyl-N-(2-((4aS,5aR)-5a-methyl-1,4,4a,5,5a,6-hexahydrocyclopropa[f]indazol-3-yl)-1H-imidazo[4,5-b]pyridin-6-yl)cyclobutane-1-carboxamide], the IC50 in assay [1] was 288 nM; in assay [2], 31 nM. In addition, the inhibition at 1 µM in assay [3] came to 96%.

As to `CN(C(=O)C(C)(C)C)c1cnc2nc(-c3n[nH]c4c3C[C@@H]3C[C@]3(C)C4)[nH]c2c1` [Example 86, N-Methyl-N-(2-((4aS,5aR)-5a-methyl-1,4,4a,5,5a,6-hexahydrocyclopropa[f]indazol-3-yl)-1H-imidazo[4,5-b]pyridin-6-yl)pivalamide], the IC50 in assay [1] was determined as 466 nM; in assay [2], 100 nM. Also, in assay [3], the inhibition at 1 µM was determined as 95%.

In the case of `CN(C(=O)C1(F)CCC1)c1cnc2[nH]c(-c3n[nH]c4c3CCC(C)(C)C4)nc2c1` [Example 95, N-(2-(6,6-Dimethyl-4,5,6,7-tetrahydro-1H-indazol-3-yl)-3H-imidazo[4,5-b]pyridin-6-yl)-1-fluoro-N-methylcyclobutane-1-carboxamide], the 50% inhibitory concentration (IC50) in assay [1] amounted to 266 nM; in assay [2], 64 nM. The inhibition at 1 µM in assay [3] worked out at 93%.

Consider `CN(C(=O)CCC(C)(F)F)c1cnc2[nH]c(-c3n[nH]c4c3CCC(C)(C)C4)nc2c1` [Example 97, N-(2-(6,6-Dimethyl-4,5,6,7-tetrahydro-1H-indazol-3-yl)-3H-imidazo[4,5-b]pyridin-6-yl)-4,4-difluoro-N-methylpentanamide], for which the half-maximal inhibitory concentration (IC50) worked out at 287 nM in assay [1] and 56 nM in assay [2]. Also, in assay [3], the inhibition at 1 µM was 92%.
